This note sets out measurements from ChEMBL document CHEMBL1146222, “Cyclic depsipeptides, ichthyopeptins A and B, from Microcystis ichthyoblabe” (J Nat Prod, 2007).

In brackets after ≈: the same amount, converted by molar mass.

This test relates to Influenza A virus. The experiment in a line: Antiviral activity against Influenza A virus (A/WSN/33/London (H1N1)) in MDCK cells after 72 hrs by neutral red dye uptake assy. It is filed as functional, organism-based.

On to `NC12CC3CC(CC(C3)C1)C2` [AMANTADINE], for which the IC50 was 15 µg/mL (≈ 99.2 µM).

For orientation: IC50 means the midpoint of a concentration-inhibition curve. Read a high IC50 as lower potency.
